≈ marks a conversion by molar mass, not a printed value. Where “and” joins values, the source holds several entries; their conditions need not be identical. Identical values can stand only once. Counter-ions that a name gives are not always drawn. Like-named read-outs stand apart in the source and are kept apart here.
Key:
HCT15 / SKBR3 = assay: SRB cytotoxicity ratio HCT15/SKBR3 (topoisomerase resistance); format: cell-based, human; details: 2880 min
[1] = tested on: panel of >20 human tumor cell lines; assay: In vitro tumor panel evaluation, Sulforhodamine B (SRB) cytotoxicity assay; format: cell-based; details: for IC50: Homo sapiens
MIP / SW620 = assay: SRB cytotoxicity ratio MIP/SW620 (MDR, P-glycoprotein resistance); format: cell-based, human; details: 2880 min
[2] = tested on: Ovcar3 human ovarian carcinoma; design: species or system human tumor in Balb/C nu/nu athymic mice; details: in vivo
[3] = tested on: DDP (Cisplatin resistant ovarian carcinoma cell line) / S (A2780); assay: SRB cytotoxicity ratio DDP/S (cisplatin resistance); format: cell-based, human
CaCo2 / CX1 [4] = details: human, Caco-2, 48 h
Method: (§4) The cytotoxic activity of the pyrrolo[4,3,2-de]quinolin-8(1H)-ones against a panel of >20 human tumor cell lines is determined using the Sulforhodamine B protein dye-binding colorimetric cytotoxicity assay (SRB) described by Skehan et al. (Journal National Cancer Institute 82:1107-1112, 1990), as modified by Monks et al., (Journal National Cancer Institute 83: 757-766, 1991). […] Positive controls (i.e., etoposide) are included in every experiment. Treatments are for 48 hours, after which cells are fixed in 10% trichloroacetic acid (10% final concentration), washed five times with deionized water and stained with SRB solution (0.4% in glacial acetic acid). Protein-bound stain is solubilized with 0.1 ml tris buffer and the adsorbance values are recorded with a microplate reader. Duplicate plates of cells are fixed with trichloroacetic acid at the time of drug addition to establish To values, as described by Monks et al. (JNCl, 83: 757-766, 1991). The effect of drug treatments over the five-long range of concentrations is calculated using the formula, T--To/C--To, to determine the IC50 values.
(§5) 3) The ratio values for DDP/S; CaCo2/CX1; MIP/SW620, and; HCT15/SKBR3 refer to the IC50 value for resistant cell lines included in the tumor cell panel, divided by the IC50 value for corresponding drug sensitive cell lines. For example, DDP is a Cisplatin resistant ovarian carcinoma cell line, and S is the corresponding parent drug sensitive ovarian carcinoma cell line (A2780). […] CaCo2 is a slow growing non P-glycoprotein multidrug resistant colon carcinoma cell line. MIP is a colon carcinoma cell line that expresses P-glycoprotein and is multidrug resistant; SW620 is a drug sensitive colon carcinoma cell line. HCT15 is a colon carcinoma cell line that is resistant to topoisomerase inhibitors and SKBR3 is a breast carcinoma that is very sensitive to topoisomerase inhibitors.

CaCo2 / CX1 [5] = assay: SRB cytotoxicity ratio CaCo2/CX1 (growth kinetics); details: IC50 resistant / IC50 sensitive cell line, 2880 min
Method: as §4, §5

BR513 = format: cell-based
P388 murine leukemia = tested on: P388 murine leukemia; design: species or system murine (mice); details: mouse, in vivo
S. aureus 375 = assay: Antibacterial agar diffusion assay; format: cell-based; details: H = hazy zones
S. aureus meth r 310 = assay: Antibacterial agar diffusion assay; format: cell-based; details: H = hazy zones
E. faecium 379 = assay: Antibacterial agar diffusion assay; format: cell-based; details: H = hazy zones
Method: (§1) One hundred fifty milliliters of agar medium are seeded with 1 ml of diluted culture and aseptically poured into 9 inch×9 inch Nunc bioassay plates. The twenty-five microliters of the test sample dissolved in DMSO are placed in 5.5 mmwells that are cut into agar layer which has been pre-seeded with the test bacterial strains. The plates are incubated at 37° C. for 18-24 hours. Zones of inhibition are recorded.
(§2) ALL SAMPLES IN 20% DMSO
(§3) AGAR DIFFUSION ASSAY 25 microliter sample in 5.5 mm well

S. aureus cipro r 400 = assay: Antibacterial agar diffusion assay; format: cell-based; details: 64 microgram/ml; H = hazy zones
Method: as §1, §2, §3

E. coli 300 = assay: Antibacterial agar diffusion assay; format: cell-based; design: concentration or dose not given beside the values
K. pneumoniae 53 = assay: Antibacterial agar diffusion assay; format: cell-based; details: H = hazy zones
C. freundii 395 = assay: Antibacterial agar diffusion assay; format: cell-based; details: 1000 microgram/ml; H = hazy zones
B. subtilis 17 = assay: Antibacterial agar diffusion assay; format: cell-based; details: H = hazy zones
[6] = human, ddp/s ovarian carcinoma cells, 2880 min
[7] = IC50 resistant / IC50 sensitive cell line, topoisomerase resistance
[8] = Mean IC50 value for all 20 cell lines, 48 hours, read-out: AVG IC50
[9] = least sensitive cell line, 48 hours, read-out: MAX IC50
[10] = most sensitive cell line, 48 hours, read-out: MIN IC50
[11] = IC50 resistant / IC50 sensitive cell line, MDR (pglycoprotein) resistance
[12] = IC50 resistant / IC50 sensitive cell line, cisplatin resistance, 2880 min

| Molecule | CaCO2/CX1 IC50 ratio (CaCo2 / CX1 [4]) | HCT15/SKBR3 IC50 ratio (HCT15 / SKBR3; [7]) | IC50 [1, 8] [µg/mL] | IC50 [1, 9] [µg/mL] | IC50 [1, 10] [µg/mL] | MIP/SW620 IC50 ratio (MIP / SW620; [11]) | DDP/S IC50 ratio [3, 12] | further results |
| --- | --- | --- | --- | --- | --- | --- | --- | --- |
| COc1cc([C@@H]2c3cc4c(cc3[C@@H](O[C@@H]3O[C@@H]5CO[C@@H](C)O[C@H]5[C@H](O)[C@H]3O)[C@H]3COC(=O)[C@H]23)OCO4)cc(OC)c1O [Etoposide, etoposide, reference compound] | 4.2 | – | – | – | – | – | – | HCT15/SKBR3 IC50 ratio (HCT15 / SKBR3; human, hct15/skbr3 cells): 22.3; HCT15 more resistant than SKBR3 (HCT15 / SKBR3; human, hct15/skbr3 cells): 22 fold; IC50 ([1]; 48 h, read-out: AVG IC50): 8.7 µg/mL (≈ 14.8 µM); IC50 ([1]; 48 h, read-out: MAX IC50): 27.9 µg/mL (≈ 47.4 µM); IC50 ([1]; 48 h, read-out: MIN IC50): 0.12 µg/mL (≈ 0.204 µM); MIP/SW620 IC50 ratio (MIP / SW620; human, mip/sw620 cells): 1.9; Ovcar3 Min T/C % [2]: 62%; cross resistance in the cisplatin resistant cell line DDP [3]: cross resistant; DDP/S IC50 ratio [3, 6]: 53.0; IC50 value of DDP higher than the parent cell line [3, 6]: 53 fold |
| Cn1cc2ccnc3c2c1C(=O)C(N)=C3.O=C(O)C(F)(F)F [Example 2, 7-amino-1-methyl-pyrrolo[4,3,2-de]quinolin-8(1H)-one trifluoroacetate] | – | 6.7 | 18 | 25.1 | 2.03 | 0.9 | 1.0 | CaCO2/CX1 IC50 ratio (CaCo2 / CX1 [5]): 0.6 |
| C[N+]1=C2C=C(N)C(=O)c3[nH]cc(c32)CC1 [Example 3, 7-amino-1,3,4,8-tetrahydro-5-methyl-8-oxo-pyrrolo[4,3,2-de]quinolinium trifluoroacetate] | – | 1.9 | – | – | – | 1.1 | – | IC50 ([1]; 48 h, read-out: AVG IC50): 1.7 µg/mL; IC50 ([1]; 48 h, read-out: MAX IC50): 10 µg/mL; IC50 ([1]; 48 h, read-out: MIN IC50): 0.06 µg/mL; Ovcar3 Min T/C % [2]: 37%; BIA BR513 (BR513; 1000 microgram/ml, T = toxic): 8T; CaCO2/CX1 IC50 ratio (CaCo2 / CX1 [5]): 0.3; P388 ILS % (P388 murine leukemia): 18% |
| Cn1cc2c3c1C(=O)C(N/C=C/c1ccc(O)cc1)=CC3=NCC2.O=C(O)C(F)(F)F [Example 5, (E)-7-[[2-(4-hydroxyphenyl)ethenyl]amino]-1-methyl-3,4-dihydropyrrolo[4,3,2-de]quinolin-8(1H)-one trifluoroacetate] | – | 0.3 | 2.3 | 3.44 | 1.23 | 1.1 | 1.1 | CaCO2/CX1 IC50 ratio (CaCo2 / CX1 [5]): 1.5 |
| O=C1C(NC2Cc3cc(Br)c(O)cc3S2)=CC2=NCCc3c[nH]c1c32 (centres unmarked) [Example 6, trifluoroacetate] | 6.3 | – | – | – | – | – | 1.8 | HCT15/SKBR3 IC50 ratio (HCT15 / SKBR3; human, hct15/skbr3 cells): 3.5; more potent than the reference topoisomerase inhibitor, etoposide [1]: 1 log; ZONES OF INHIBITION (S. aureus 375; 250 microgram/ml): 7H; MIP/SW620 IC50 ratio (MIP / SW620; human, mip/sw620 cells): 5.1; BIA BR513 (BR513): 8T; ZONES OF INHIBITION (S. aureus meth r 310; 64 microgram/ml): 8 MM; ZONES OF INHIBITION (S. aureus meth r 310; 250 microgram/ml): 9 MM; ZONES OF INHIBITION (S. aureus meth r 310; 1000 microgram/ml): 10 MM; ZONES OF INHIBITION (E. faecium 379; 64 microgram/ml): 9H; ZONES OF INHIBITION (E. faecium 379; 250 microgram/ml): 11H; ZONES OF INHIBITION (E. faecium 379; 1000 microgram/ml): 12H; ZONES OF INHIBITION (S. aureus cipro r 400): 11H; ZONES OF INHIBITION (E. coli 300; trifluoroacetate): 12 and 11 and 9 |
| C[N+]1=C2C=C(NCc3cccc4ccccc34)C(=O)c3[nH]cc(c32)CC1 [Example 44, 1,3,4,8-Tetrahydro-5-methyl-7-[(1-naphthalenylmethyl)amino]-8-oxo-pyrrolo[4,3,2-de]quinolinium trifluoroacetate] | 32.0 | 1140.0 | 5.6 | 27.1 | 0.02 | 67.8 | 11.3 | – |
| C[N+]1=C2C=C(NCc3ccccc3)C(=O)c3[nH]cc(c32)CC1 [Example 46, 1,3,4,8-Tetrahydro-5-methyl-8-oxo-7-[(phenylmethyl)amino]-pyrrolo[4,3,2-de]quinolinium trifluoroacetate] | 5.4 | 113.0 | 7 | 22.3 | 0.2 | 8.3 | 1.6 | – |
| C[N+]1=C2C=C(NCc3ccc(O)cc3)C(=O)c3[nH]cc(c32)CC1 [Example 49, 1,3,4,8-Tetrahydro-7-[[(4-hydroxyphenyl)methyl]amino]-5-methyl-8-oxo-pyrrolo[4,3,2-de]quinolin-8 (1H)-one trifluoroacetate] | 1.0 | 15.4 | 3.3 | 13.9 | 0.92 | 4.2 | 1.1 | – |
| CN1CCc2cn(C)c3c2C1=CC(=O)C3=O [Example 52, 1,3,4,5-Tetrahydro-1,5-dimethyl-pyrrolo[4,3,2-de]quinoline-7,8-dione] | 0.8 | 2.6 | 25 (≈ 116 µM) | 50 (≈ 231 µM) | 12.3 (≈ 56.9 µM) | 1.5 | 1.1 | – |
| C[N+]1=C2C=C(N)C(=O)c3c2c(cn3CCC#N)CC1 [Example 56, 7-Amino-1-(2-cyanoethyl)-1,3,4,8-tetrahydro-5-methyl-8-oxo-pyrrolo[4,3,2-de]quinolinium trifluoroacetate] | 1.4 | 3.1 | 4.7 | 21.5 | 1.56 | 2.0 | 1.0 | – |
| C[N+]1=C2C=C(NCC(O)c3ccccc3)C(=O)c3[nH]cc(c32)CC1 (centres unmarked) [Example 58, 1,3,4,8-Tetrahydro-7-[2-hydroxy-2-phenylethyl)amino]-5-methyl-8-oxo-pyrrolo[4,3,2-de]quinolinium trifluoroacetate] | 34.0 | 227.0 | 11 | 50 | 0.22 | 167.0 | 1.5 | – |
| CC[C@]1(O)C[C@H]2CN(CCc3c([nH]c4ccccc34)[C@@](C(=O)OC)(c3cc4c(cc3OC)N(C=O)[C@H]3[C@@](O)(C(=O)OC)[C@H](OC(C)=O)[C@]5(CC)C=CCN6CC[C@]43[C@@H]65)C2)C1 [Vincristine, reference compound] | – | – | – | – | – | – | – | Ovcar3 Min T/C % [2]: 53%; P388 ILS % (P388 murine leukemia): > 91% |
| CINODINE | – | – | – | – | – | – | – | ZONES OF INHIBITION (S. aureus 375; 250 microgram/ml): 7 MM; ZONES OF INHIBITION (S. aureus 375; 1000 microgram/ml): 9 MM; ZONES OF INHIBITION (K. pneumoniae 53; 16 microgram/ml): 8 MM; ZONES OF INHIBITION (K. pneumoniae 53; 64 microgram/ml): 10 MM; ZONES OF INHIBITION (K. pneumoniae 53; 250 microgram/ml): 12 MM; ZONES OF INHIBITION (S. aureus meth r 310; 1000 microgram/ml): 7 MM; ZONES OF INHIBITION (C. freundii 395): 8H; ZONES OF INHIBITION (B. subtilis 17; 64 microgram/ml): 8 MM; ZONES OF INHIBITION (B. subtilis 17; 250 microgram/ml): 11 MM; ZONES OF INHIBITION (B. subtilis 17; 1000 microgram/ml): 13 MM; ZONES OF INHIBITION (E. coli 300; 1000 microgram/ml, H = hazy zones): 9 MM |
